The values that follow are results of earlier work, collected in article PMC12308805, “Ultrahigh-Throughput Virtual Screening Strategies against PPI Targets: A Case Study of STAT Inhibitors” (Journal of Chemical Information and Modeling, 2025).

The first data set deals with STAT3. Particulars: sheet 6QHD_actives_decoys; retrospective screening set for STAT3 SH2 domain (PDB 6QHD); […]; ref DUD-E; cited from earlier work.
As to `Cc1cc(NS(=O)(=O)c2ccc(NC(=S)NC(=O)COc3ccc([N+](=O)[O-])cc3)cc2)no1` [Decoy494], the Type entry is “Inactive (Decoy)”.

Turning to `CC[C@H](C)N1C(=O)NC(=O)/C(=C/Nc2ccc3c(c2)C[C@]2(C(=O)NC(=O)N=C2O)[C@H]2CN(C)CCN32)C1=O` [Decoy502], the Type entry was “Inactive (Decoy)”.

The data set is the same for the next values; noted with them: sheet 6QHD_actives_decoys; retrospective screening set for STAT3 SH2 domain (PDB 6QHD); decoys generated with DUD-E and presumed inactive, not tested; ref DUD-E; cited from earlier work.
Regarding `CCOC(=O)c1ccc(NC(=O)COc2cc(Br)c([C@H]3NC(=S)N=C(C)/C3=C(/O)OC)cc2OC)cc1` [Decoy489], the Type entry is recorded as “Inactive (Decoy)”.

In the case of `NS(=O)(=O)c1ccc(CCNC(=O)CCCCCn2c(=S)[nH]c3ccc(N4CCOCC4)cc3c2=O)cc1` [Decoy490], the Type entry is listed as “Inactive (Decoy)”.

Turning to `C=C(CCO)C(=O)OC[C@@H]1OC[C@H](OC(=O)C(=C)CCO[C@@H]2O[C@H](COC(=O)C(=C)CCO)[C@@H](O)[C@H](O)[C@H]2O)[C@@H](O)[C@H]1O` [Decoy491], the Type result is recorded as “Inactive (Decoy)”.

Turning to `C=C(CCO)C(=O)OC[C@H]1OC[C@@H](OC(=O)C(=C)CCO[C@@H]2O[C@H](COC(=O)C(=C)CCO)[C@@H](O)[C@H](O)[C@H]2O)[C@@H](O)[C@H]1O` [Decoy492], the Type result is reported as “Inactive (Decoy)”.

For the compound `C=C(CCO)C(=O)OC[C@H]1OC[C@H](OC(=O)C(=C)CCO[C@@H]2O[C@H](COC(=O)C(=C)CCO)[C@@H](O)[C@H](O)[C@H]2O)[C@@H](O)[C@H]1O` [Decoy493], the Type result was “Inactive (Decoy)”.

Turning to `CCN(CC)C1=NC(=O)[C@@H](CC(=O)Nc2cccc(C(=O)OCC(=O)c3ccc(C)cc3)c2)S1` [Decoy495], the Type result is listed as “Inactive (Decoy)”.

As for `COC(=O)c1ccc2c(=O)n(CCc3ccc(S(N)(=O)=O)cc3)c(SCC(=O)Nc3ccc(C)cc3)nc2c1` [Decoy496], the Type entry is listed as “Inactive (Decoy)”.

In the case of `COC(=O)[C@@H]1O[C@H](OC/C(=N/NC(N)=O)[C@H]2CC[C@@H]3[C@@H]4CC[C@@H]5C[C@H](OC(C)=O)CC[C@@]5(C)[C@H]4C(=O)C[C@@]23C)[C@@H](OC(C)=O)[C@H](OC(C)=O)[C@H]1OC(C)=O` [Decoy497], the Type result is recorded as “Inactive (Decoy)”.

Turning to `COC(=O)[C@@H]1O[C@H](OC/C(=N/NC(N)=O)[C@H]2CC[C@@H]3[C@@H]4CC[C@@H]5C[C@H](OC(C)=O)CC[C@@]5(C)[C@H]4[C@H](O)C[C@@]23C)[C@@H](OC(C)=O)[C@H](OC(C)=O)[C@H]1OC(C)=O` [Decoy498], the Type entry is “Inactive (Decoy)”.

As for `CCOC(=O)c1cc(C(=O)OCC)c(=O)[nH]c1NN=C1CCN(c2ncc(C(F)(F)F)cc2Cl)CC1` [Decoy499], the Type result is recorded as “Inactive (Decoy)”.

Turning to `COc1cc(NC(=O)CSc2n[nH]c(N/N=C/c3cc([N+](=O)[O-])ccc3O)n2)ccc1Cl` [Decoy500], the Type result is listed as “Inactive (Decoy)”.

On to `Nc1ccc2cc(S(=O)(=O)O)cc(O)c2c1/N=N/c1ccccc1S(=O)(=O)NCC1CCCCC1` [Decoy501], for which the Type result is reported as “Inactive (Decoy)”.

Consider `O=C(O)CN(CC(=O)O)[C@H](CCCCNC(=S)Nc1ccc(-c2c3ccc(=O)cc-3oc3cc(O)ccc23)c(C(=O)O)c1)C(=O)O` [Decoy503], for which the Type entry is “Inactive (Decoy)”.

Consider `CCN(CC)c1ccc(C(=O)OCC(=O)Nc2cccc(S(=O)(=O)/N=C3\CCCCCN3)c2)cc1` [Decoy504], for which the Type entry was “Inactive (Decoy)”.

For `NCCCCCCNc1ncnc2c1ncn2[C@@H]1O[C@H](COP(=O)(O)O)[C@@H](OP(=O)(O)O)[C@H]1O` [Decoy505], the Type entry was “Inactive (Decoy)”.

In the case of `C=C(CO[C@@H]1[C@H](O)[C@H](CO)O[C@@H](OCC#Cc2ccc(O)c(C(=O)OC)c2)[C@H]1NC(C)=O)C(=O)OCC` [Decoy506], the Type result is “Inactive (Decoy)”.

On to `C=C(CO[C@H]1[C@H](O)[C@H](CO)O[C@@H](OCC#Cc2ccc(O)c(C(=O)OC)c2)[C@H]1NC(C)=O)C(=O)OCC` [Decoy507], for which the Type entry is “Inactive (Decoy)”.

As to `C=CCn1c(CNc2ccc(C)cc2)nnc1SCCC(=O)Nc1sc(C(=O)OCC)c(C)c1C#N` [Decoy508], the Type result is on record as “Inactive (Decoy)”.

`CCOc1ccc(-c2n[nH]c3c2[C@H](c2cc(OC)c(OC(C)=O)c(OC)c2)C(C#N)=C(N)O3)cc1` [Decoy509]: the Type entry is “Inactive (Decoy)”.
